According to patent publication US20050113566A1, “Inhibitors of C-FMS kinase” (priority 2003, published 2005):

Target: c-fms (Homo sapiens, UniProt P07333)
Test: autophosphorylation, fluorescence polarization competition immunoassay for c-fms inhibition
Format: biochemical
Settings: 10 nM c-fms, 1 mM ATP; for IC50: averages of three independent measurements; for inhibition at 2 µM: at 2 μM compound
Description: The assay buffer used was 100 mM 4-(2-hydroxyethyl)piperazine 1-ethanesulfonic acid (HEPES), pH 7.5, 1 mM 1,4-dithio-DL-threitol (DTT), 0.01% (v/v) Tween-20. Compounds were diluted in assay buffer containing 4% dimethylsulfoxide (DMSO) just prior to the assay. To each well, 5 μL of compound were added followed by the addition of 3 μL of a mix containing 33 nM c-fms (Johnson & Johnson PRD) and 16.7 mM MgCl2 (Sigma) in assay buffer. The kinase reaction was initiated by adding 2 μL of 5 mM ATP (Sigma) in assay buffer. The final concentrations in the assay were 10 nM c-fms, 1 mM ATP, 5 mM MgCl2, 2% DMSO. Control reactions were ran in each plate: in positive and negative control wells, assay buffer (made 4% in DMSO) was substituted for the compound; in addition, positive control wells received 1.2 μL of 50 mM ethylenediaminetetraaceticacid (EDTA).
The plates were incubated at room temperature for 45 min. At the end of the incubation, the reaction was quenched with 1.2 μL of 50 mM EDTA (EDTA was not added to the positive control wells at this point; see above). Following a 5-min incubation, each well received 10 μL of a 1:1:3 mixture of anti-phosphotyrosine antibody, 10×, PTK green tracer, 10× (vortexed), FP dilution buffer, respectively (all from PanVera, cat. # P2837). The plate was covered, incubated for 30 min at room temperature and the fluorescence polarization was read on the Analyst. The instrument settings were: 485 nm excitation filter; 530 nm emission filter; Z height: middle of well; G factor: 0.93. […] The reported IC50 values are averages of three independent measurements.

Sequence of c-fms (P07333 20-972): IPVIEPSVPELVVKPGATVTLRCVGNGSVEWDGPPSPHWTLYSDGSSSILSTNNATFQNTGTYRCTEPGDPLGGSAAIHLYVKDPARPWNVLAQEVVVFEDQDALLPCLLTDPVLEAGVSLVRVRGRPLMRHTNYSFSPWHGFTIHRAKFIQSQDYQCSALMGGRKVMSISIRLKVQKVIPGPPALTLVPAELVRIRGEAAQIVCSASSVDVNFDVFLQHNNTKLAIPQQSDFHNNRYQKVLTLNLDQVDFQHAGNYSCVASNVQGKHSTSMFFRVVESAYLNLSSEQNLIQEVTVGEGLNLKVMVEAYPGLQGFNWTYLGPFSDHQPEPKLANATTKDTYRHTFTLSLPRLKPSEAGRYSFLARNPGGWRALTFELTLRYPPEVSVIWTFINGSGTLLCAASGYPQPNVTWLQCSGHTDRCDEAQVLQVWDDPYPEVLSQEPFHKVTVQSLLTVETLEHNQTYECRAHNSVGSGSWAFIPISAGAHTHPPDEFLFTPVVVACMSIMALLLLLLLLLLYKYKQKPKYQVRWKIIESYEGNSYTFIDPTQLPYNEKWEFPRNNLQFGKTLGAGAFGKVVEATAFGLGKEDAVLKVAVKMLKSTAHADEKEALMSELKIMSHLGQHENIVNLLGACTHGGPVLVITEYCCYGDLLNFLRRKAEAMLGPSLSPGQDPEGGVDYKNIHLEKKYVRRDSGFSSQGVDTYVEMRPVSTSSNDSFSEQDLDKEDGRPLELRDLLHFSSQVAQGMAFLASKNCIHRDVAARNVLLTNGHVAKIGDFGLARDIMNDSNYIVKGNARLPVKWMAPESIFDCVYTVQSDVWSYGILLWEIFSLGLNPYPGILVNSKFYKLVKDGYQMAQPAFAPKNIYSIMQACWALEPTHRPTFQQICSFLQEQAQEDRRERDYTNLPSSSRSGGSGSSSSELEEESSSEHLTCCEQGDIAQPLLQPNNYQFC

Row | Structure (SMILES) | IC50 [nM] | inhibition at 2 µM [%]
1 | N#Cc1ccc(C(=O)Nc2ccccc2-c2ccccc2)o1 | < 5000 | 54
2 | N#Cc1ccc(C(=O)Nc2ccccc2C2=CCCCC2)o1 | < 1000 | 85
3 | N#Cc1ccc(C(=O)Nc2ccccc2-c2ccco2)o1 |  | 13
4 | N#Cc1ccc(C(=O)Nc2ccccc2-c2cccs2)o1 |  | 25
5 | N#Cc1ccc(C(=O)Nc2ccccc2C2CCCCC2)o1 |  | 29
